Reference: US20100305124A1, “Acylated Aminopyridine and Aminopyridazine Insecticides” (BAYER CROPSCIENCE AG, priority 2009, published 2010)

What follows are compounds tested on green peach aphid (Myzus persicae) (assay: Myzus test (MYZUPE spray treatment), Chinese cabbage leaf discs). Details: foliar, application rate of 20 g/ha, spray on Chinese cabbage discs, read-out: effect in % (aphids killed).
Assay type: in vivo
Method: Myzus Test (MYZUPE Spray Treatment)
Solvents: 78 parts by weight of acetone • • 1.5 parts by weight of dimethylformamide Emulsifier: 0.5 part by weight of alkylaryl polyglycol ether
An appropriate preparation of active ingredient is prepared by mixing 1 part by weight of active ingredient with the stated amounts of solvents and emulsifier and diluting the concentrate with emulsifier-containing water to the desired concentration.
Discs of Chinese cabbage (Brassica pekinensis) infested with all stages of the green peach aphid (Myzus persicae) are sprayed with a preparation of active ingredient at the desired concentration.
After the desired time, the effect in % is determined. Here, 100% means that all of the aphids have been killed; 0% means that no aphids have been killed.
`Cc1ncccc1-n1ncc(C(=O)Nc2cccnc2)c1C` [I-2] was tested, and the pest or weed control at 20 g/ha was ≥ 80%.

Same assay, conditions: foliar, application rate of 500 g/ha, spray on Chinese cabbage discs, read-out: effect in % (aphids killed)
With `Cc1ccc(C(=O)N(C)c2cccnc2)cc1NC(=O)OC(C)C` [I-316] the pest or weed control at 500 g/ha was ≥ 80%.
`CC(C)C(=O)Nc1cc(C(=O)N(C)c2cccnc2)ccc1F` [I-298] was tested, and the pest or weed control at 500 g/ha was ≥ 80%.
`CC(C)n1ncc(C(=O)N(C)c2cccnc2)c1C(F)(F)F` [I-329] was tested, and the pest or weed control at 500 g/ha was ≥ 80%.
For `CN(C(=O)c1ccc2c(c1)OC(F)(F)O2)c1cccnc1` [I-261], the pest or weed control at 500 g/ha was ≥ 80%.
With `COc1ccc(C(=O)Nc2cccnc2)cc1OC` [I-263] the pest or weed control at 500 g/ha was ≥ 80%.
For `CC(F)c1nn(C)cc1C(=O)N(C)c1ccnnc1` (stereo not shown) [I-321], the pest or weed control at 500 g/ha was ≥ 80%.
`CN(C(=O)c1ccc(F)c(C(F)(F)F)c1)c1cccnc1` [I-259] was tested, and the pest or weed control at 500 g/ha was ≥ 80%.
`COCc1c(C(=O)N(C)c2cccnc2)cnn1-c1ncccn1` [I-273] was tested, and the pest or weed control at 500 g/ha was ≥ 80%.
For `COc1ccc(C(=O)N(C)c2cccnc2)cc1OC` [I-260], the pest or weed control at 500 g/ha was ≥ 80%.
With `COc1ccc(C(=O)N(C)c2cccnc2)cc1NC(=O)C1CCCC1` [I-333] the pest or weed control at 500 g/ha was ≥ 80%.
`CCCC(=O)Nc1cc(C(=O)N(C)c2cccnc2)ccc1C` [I-315] was tested, and the pest or weed control at 500 g/ha was ≥ 80%.
`CN(C(=O)c1cnn(-c2ncccn2)c1C(C)(F)F)c1cccnc1` [I-277] was tested, and the pest or weed control at 500 g/ha was ≥ 80%.
With `Cc1ccc(C(=O)N(C)c2cccnc2)cc1NC(=O)C(C)(C)C` [I-305] the pest or weed control at 500 g/ha was ≥ 80%.
For `CC(=O)Nc1cccc(C(=O)N(C)c2cccnc2)c1` [I-283], the pest or weed control at 500 g/ha was ≥ 80%.
`COCc1c(C(=O)N(C)c2cccnc2)cnn1CC(F)(F)F` [I-270] was tested, and the pest or weed control at 500 g/ha was ≥ 80%.
`COCC(=O)Nc1cc(C(=O)N(C)c2cccnc2)ccc1OC` [I-335] was tested, and the pest or weed control at 500 g/ha was ≥ 80%.
`CN(C(=O)c1cn(C)nc1C(F)(F)F)c1ccnnc1` [I-322] was tested, and the pest or weed control at 500 g/ha was ≥ 80%.
For `COc1ccc(C(=O)Nc2cccnc2)cc1NC(=O)C1CC1` [I-293], the pest or weed control at 500 g/ha was ≥ 80%.
For `CN(C(=O)c1ccc(OC(F)(F)F)cc1)c1cccnc1` [I-266], the pest or weed control at 500 g/ha was ≥ 80%.
With `CN(C(=O)c1cnn(-c2ccccc2Cl)c1C(F)(F)F)c1cccnc1` [I-271] the pest or weed control at 500 g/ha was ≥ 80%.
With `CCCC(=O)Nc1cc(C(=O)N(C)c2cccnc2)ccc1OC` [I-336] the pest or weed control at 500 g/ha was ≥ 80%.
`CN(C(=O)c1cnn(CC(F)(F)F)c1C(F)F)c1cccnc1` [I-269] was tested, and the pest or weed control at 500 g/ha was ≥ 80%.
In the case of `CC(C)n1ncc(C(=O)Nc2cccnc2)c1C(F)(F)F` [I-285], the pest or weed control at 500 g/ha is reported as ≥ 80%.
In the case of `CCC(=O)Nc1cc(C(=O)N(C)c2cccnc2)ccc1OC` [I-331], the pest or weed control at 500 g/ha is reported as ≥ 80%.
In the case of `COC(C)c1c(C(=O)N(C)c2cccnc2)cnn1CC(F)(F)F` (stereo not shown) [I-275], the pest or weed control at 500 g/ha is reported as ≥ 80%.
In the case of `CN(C(=O)c1ccc(Cl)c(NC(=O)C2CC2)c1)c1cccnc1` [I-302], the pest or weed control at 500 g/ha is reported as ≥ 80%.
With `COc1ccc(C(=O)N(C)c2cccnc2)cc1NC(=O)C(C)C` [I-297] the pest or weed control at 500 g/ha was ≥ 80%.
`COc1ccc(C(=O)N(C)c2cccnc2)cc1NC(=O)OC(C)C` [I-337] was tested, and the pest or weed control at 500 g/ha was ≥ 80%.
With `Cc1ccc(C(=O)N(C)c2cccnc2)cc1NC(=O)C1CCCC1` [I-312] the pest or weed control at 500 g/ha was ≥ 80%.
For `C/C=C/C(=O)Nc1cc(C(=O)N(C)c2cccnc2)ccc1C` [I-317], the pest or weed control at 500 g/ha was ≥ 80%.
For `CCC(C)C(=O)Nc1cc(C(=O)N(C)c2cccnc2)ccc1OC` (stereo not shown) [I-332], the pest or weed control at 500 g/ha was ≥ 80%.
For `CN(C(=O)c1csc(-c2ncccc2Cl)n1)c1cccnc1` [I-278], the pest or weed control at 500 g/ha was ≥ 80%.
`CC(C)C(=O)Nc1cc(C(=O)N(C)c2cccnc2)ccc1Cl` [I-299] was tested, and the pest or weed control at 500 g/ha was ≥ 80%.
With `CN(C(=O)c1cn(C)nc1C1CC1)c1ccnnc1` [I-324] the pest or weed control at 500 g/ha was ≥ 80%.
With `Cc1ccc(C(=O)N(C)c2cccnc2)cc1[N+](=O)[O-]` [I-295] the pest or weed control at 500 g/ha was ≥ 80%.
With `CN(C(=O)c1ccc(F)c(NC(=O)C2CC2)c1)c1cccnc1` [I-301] the pest or weed control at 500 g/ha was ≥ 80%.
In the case of `O=C(Nc1cccnc1)c1ccc(OC(F)(F)F)cc1` [I-264], the pest or weed control at 500 g/ha is reported as ≥ 80%.
For `CN(C(=O)c1cnn(-c2ncccn2)c1C(F)F)c1cccnc1` [I-274], the pest or weed control at 500 g/ha was ≥ 80%.
For `CC(C)Oc1ccc(C(=O)N(C)c2cccnc2)cc1-n1ccc(C(F)(F)F)n1` [I-279], the pest or weed control at 500 g/ha was ≥ 80%.
For `CC(C)c1nn(C)cc1C(=O)N(C)c1ccnnc1` [I-323], the pest or weed control at 500 g/ha was ≥ 80%.
`O=C(Nc1cccnc1)c1ccc(F)c(C(F)(F)F)c1` [I-258] was tested, and the pest or weed control at 500 g/ha was ≥ 80%.
`CC(=O)Nc1cc(C(=O)N(C)c2cccnc2)ccc1C` [I-308] was tested, and the pest or weed control at 500 g/ha was ≥ 80%.
`COc1ccc(C(=O)N(C)c2cccnc2)cc1-n1cccn1` [I-280, 4-Methoxy-N-methyl-3-pyrazol-1-yl-N-pyridin-3-ylbenzamide] was tested, and the pest or weed control at 500 g/ha was ≥ 80%.
With `CCn1ncc(C(=O)Nc2cccnc2)c1C(F)(F)F` [I-287] the pest or weed control at 500 g/ha was ≥ 80%.
`CCc1nn(C)cc1C(=O)N(C)c1ccnnc1` [I-326] was tested, and the pest or weed control at 500 g/ha was ≥ 80%.
With `CCC(=O)Nc1cc(C(=O)N(C)c2cccnc2)ccc1C` [I-310] the pest or weed control at 500 g/ha was ≥ 80%.
`Cc1ccc(C(=O)N(C)c2cccnc2)cc1NC(=O)C(C)C` [I-300, 3-Isobutyrylamino-4,N-dimethyl-N-pyridin-3-ylbenzamide] was tested, and the pest or weed control at 500 g/ha was ≥ 80%.
In the case of `COc1ccc(C(=O)N(C)c2cccnc2)cc1NC(=O)C(C)(C)C` [I-303], the pest or weed control at 500 g/ha is reported as ≥ 80%.
For `CN(C(=O)c1cccc(C(F)(F)F)c1)c1cccnc1` [I-262], the pest or weed control at 500 g/ha was ≥ 80%.
For `CN(C(=O)c1cnn(-c2ncccn2)c1C(F)(F)F)c1cccnc1` [I-268, 1-Pyrimidin-2-yl-5-trifluoromethyl-1H-pyrazole-4-carboxylic acid methylpyridin-3-ylamide], the pest or weed control at 500 g/ha was ≥ 80%.
For `CC(=O)Nc1cc(C(=O)N(C)c2cccnc2)ccc1Cl` [I-307], the pest or weed control at 500 g/ha was ≥ 80%.
`COc1ccc(C(=O)N(C)c2cccnc2)cc1NS(=O)(=O)C(C)C` [I-334] was tested, and the pest or weed control at 500 g/ha was ≥ 80%.
With `COc1ccc(C(=O)N(C)c2cccnc2)cc1[N+](=O)[O-]` [I-294] the pest or weed control at 500 g/ha was ≥ 80%.
For `CN(C(=O)c1cn(C)nc1C(F)F)c1ccnnc1` [I-319], the pest or weed control at 500 g/ha was ≥ 80%.
`CN(C(=O)c1cnn(-c2ncccc2Cl)c1C(F)(F)F)c1cccnc1` [I-272] was tested, and the pest or weed control at 500 g/ha was ≥ 80%.
In the case of `Cc1ccc(C(=O)Nc2cccnc2)cc1NC(=O)C1CC1` [I-292], the pest or weed control at 500 g/ha is reported as ≥ 80%.
With `CCn1cc(C(=O)N(C)c2ccnnc2)c(C)n1` [I-327] the pest or weed control at 500 g/ha was ≥ 80%.

Same assay, conditions: foliar, application rate of 500 ppm, spray on Chinese cabbage discs, read-out: effect in % (aphids killed)
For `CC(C)C(=O)Nc1cccc(C(=O)N(C)c2cccnc2)c1` [I-284], the pest or weed control at 500 ppm was ≥ 80%.
With `CN(C(=O)c1ccc(S(C)(=O)=O)c(N)c1)c1cccnc1` [I-296] the pest or weed control at 500 ppm was ≥ 80%.

These compounds were tested on common spider mite (Tetranychus urticae) (assay: Tetranychus test (TETRUR), sprayed French bean plants). Details: application rate of 500 ppm; spray on French bean plants.
Assay type: in vivo
Method: Tetranychus Test (TETRUR) Solvent: 3 parts by weight of dimethylformamide Emulsifier: 1 part by weight of polyoxyethylenealkyl phenyl ether An appropriate preparation of active ingredient is prepared by mixing 1 part by weight of active ingredient with the stated amount of solvent and emulsifier and diluting the concentrate with water to the desired concentration. French bean (Phaseolus vulgaris) plants are infested with a mixed population of the common spider mite (Tetranychus urticae) and sprayed with the preparation of active ingredient at the desired concentration. After the desired time, the effect in % is determined: here, 100% means that all of the spider mites have been killed. Conversely, 0% means that no spider mites have been killed.
With `CN(C(=O)c1ccc(Oc2ccc(C(C)(C)C)cc2)nc1)c1cccnc1` [I-127] the “effect in % (spider mites killed)” value was ≥ 80%.
